Where two headings read alike, the source gives them in different places.
Key:
[1] = tested on: Key Broadleaf Weed and Crop Species; experiment: Post-Emergent Test II (Table 5); assay type: in vivo; conditions: post-emergence, 336 h; for pest or weed control at 70 g/ha: application rate 70 (kg ai/ha; footnote: g ai/ha); for pest or weed control at 140 g/ha: application rate 140 (kg ai/ha; footnote: g ai/ha)
Procedure: (§1) Seeds or nutlets of the desired test plant species were planted in Sun Gro Metro-Mix® 360 planting mixture, which typically has a pH of 6.0 to 6.8 and an organic matter content of about 30 percent, in plastic pots with a surface area of 64 square centimeters. When required to ensure good germination and healthy plants, a fungicide treatment and/or other chemical or physical treatment was applied. The plants were grown for 7-21 days in a greenhouse with an approximate 15 h photoperiod which was maintained at about 23-29° C. during the day and 22-28° C. during the night. Nutrients and water were added on a regular basis and supplemental lighting was provided with overhead metal halide 1000-Watt lamps as necessary. The plants were employed for testing when they reached the first or second true leaf stage.
(§2) A weighed amount, determined by the highest rate to be tested, of each test compound was placed in a 25 mL glass vial and was dissolved in 4 mL of a 97:3 v/v mixture of acetone and DMSO to obtain concentrated stock solutions. […] The concentrated stock solutions obtained were diluted with 20 mL of an aqueous mixture containing acetone, water, isopropyl alcohol, DMSO, Atplus 411F crop oil concentrate, and Triton® X-155 surfactant in a 48.5:39:10:1.5:1.0:0.02 v/v ratio to obtain spray solutions containing the highest application rates. Additional application rates were obtained by serial dilution of 12 mL of the high rate solution into a solution containing 2 mL of 97:3 v/v mixture of acetone and DMSO and 10 mL of an aqueous mixture containing acetone, water, isopropyl alcohol, DMSO, Atplus 411F crop oil concentrate, and Triton X-155 surfactant in a 48.5:39:10:1.5:1.0:0.02 v/v ratio to obtain ½×, ¼×, ⅛× and 1/16× rates of the high rate. Compound requirements are based upon a 12 mL application volume at a rate of 187 liters per hectare (L/ha). Formulated compounds were applied to the plant material with an overhead Mandel track sprayer equipped with 8002E nozzles calibrated to deliver 187 L/ha over an application area of 0.503 square meters at a spray height of 18 inches (43 cm) above the average plant canopy height. Control plants were sprayed in the same manner with the solvent blank.
(§3) The treated plants and control plants were placed in a greenhouse as described above and watered by subirrigation to prevent wash-off of the test compounds. After 14 days, the condition of the test plants as compared with that of the untreated plants was determined visually and scored on a scale of 0 to 100 percent where 0 corresponds to no injury and 100 corresponds to complete kill and presented as indicated in Table A. Some of the compounds tested, application rates employed, plant species tested, and results are given in Table 5.

[2] = tested on: Key Grass and Sedge Weeds as well as Grass Crops; experiment: Post-Emergent Test II (Table 6); assay type: in vivo; conditions: for Visual Growth Reduction (%) 14 Days After Application, CYPSS: CYPSS (CYPES: yellow nutsedge, Cyperus esculentus); for Visual Growth Reduction (%) 14 Days After Application, DIGSA: DIGSA: crabgrass (Digitaria sanguinalis); for Visual Growth Reduction (%) 14 Days After Application, ECHSS: ECHSS (ECHCG: barnyardgrass, Echinochloa crus-galli); for Visual Growth Reduction (%) 14 Days After Application, ORYSS: ORYSS (ORYSA: rice, Oryza sativa); for Visual Growth Reduction (%) 14 Days After Application, ORYSS / Visual Growth Reduction (%) 14 Days After Application, TRZSS / Visual Growth Reduction (%) 14 Days After Application, ZEAMX: crop; for Visual Growth Reduction (%) 14 Days After Application, SETFA: SETFA: giant foxtail (Setaria faberi); for Visual Growth Reduction (%) 14 Days After Application, SORVU: SORVU: johnsongrass (Sorghum vulgare); for Visual Growth Reduction (%) 14 Days After Application, TRZSS: TRZSS (TRZAS: wheat, spring, Triticum aestivum); for Visual Growth Reduction (%) 14 Days After Application, ZEAMX: ZEAMX: maize, corn (Zea mays)
Procedure: as §1, §2, §3

[3] = Abutilon theophrasti, ABUTH: velvetleaf (Abutilon theophrasti), read-out: Visual Growth Reduction (%) 14 Days After Application ABUTH
[4] = Amaranthus retroflexus, AMARE: redroot pigweed (Amaranthus retroflexus), read-out: Visual Growth Reduction (%) 14 Days After Application AMARE
[5] = Brassica napus, BRSSS: oilseed rape, canola (Brassica napus), read-out: Visual Growth Reduction (%) 14 Days After Application BRSSS
[6] = Chenopodium album, CHEAL: lambsquarters (Chenopodium album), read-out: Visual Growth Reduction (%) 14 Days After Application CHEAL
[7] = Euphorbia heterophylla, EPHHL: wild poinsettia (Euphorbia heterophylla), read-out: Visual Growth Reduction (%) 14 Days After Application EPHHL
[8] = Helianthus annuus, HELAN: sunflower (Helianthus annuus), read-out: Visual Growth Reduction (%) 14 Days After Application HELAN
[9] = Viola tricolor, VIOTR: wild pansy (Viola tricolor), read-out: Visual Growth Reduction (%) 14 Days After Application VIOTR

| SMILES | pest or weed control at 70 g/ha [1, 3] [%] | pest or weed control at 140 g/ha [1, 3] [%] | pest or weed control at 70 g/ha [1, 4] [%] | pest or weed control at 140 g/ha [1, 4] [%] | pest or weed control at 70 g/ha [1, 5] [%] | pest or weed control at 140 g/ha [1, 5] [%] | pest or weed control at 70 g/ha [1, 6] [%] | pest or weed control at 140 g/ha [1, 6] [%] | pest or weed control at 70 g/ha [1, 7] [%] | pest or weed control at 140 g/ha [1, 7] [%] | pest or weed control at 70 g/ha [1, 8] [%] | pest or weed control at 140 g/ha [1, 8] [%] | pest or weed control at 70 g/ha [1, 9] [%] | pest or weed control at 140 g/ha [1, 9] [%] | Visual Growth Reduction (%) 14 Days After Application, CYPSS ([2]; 70 g ai/ha) | Visual Growth Reduction (%) 14 Days After Application, CYPSS ([2]; 140 g ai/ha) | Visual Growth Reduction (%) 14 Days After Application, DIGSA ([2]; 70 g ai/ha) | Visual Growth Reduction (%) 14 Days After Application, DIGSA ([2]; 140 g ai/ha) | Visual Growth Reduction (%) 14 Days After Application, ECHSS ([2]; 70 g ai/ha) | Visual Growth Reduction (%) 14 Days After Application, ECHSS ([2]; 140 g ai/ha) | also measured |
| --- | --- | --- | --- | --- | --- | --- | --- | --- | --- | --- | --- | --- | --- | --- | --- | --- | --- | --- | --- | --- | --- |
| Nc1cc(-c2ccc(Cl)c(F)c2C(F)F)nc(C(=O)O)c1Cl [Compound 13, 4-Amino-3-chloro-6-(4-chloro-2-(difluoromethyl)-3-fluorophenyl)picolinic acid] | 75 to 84 | 0 to 29 | 95 to 100 | 95 to 100 | 85 to 94 | 85 to 94 | 95 to 100 | 95 to 100 | 0 to 29 | 0 to 29 | 85 to 94 | 85 to 94 | 0 to 29 | 0 to 29 | G (0-29) | G (0-29) | G (0-29) | G (0-29) | G (0-29) | G (0-29) | Visual Growth Reduction (%) 14 Days After Application, ORYSS ([2]; 70 g ai/ha): G (0-29); Visual Growth Reduction (%) 14 Days After Application, ORYSS ([2]; 140 g ai/ha): G (0-29); Visual Growth Reduction (%) 14 Days After Application, SETFA ([2]; 70 g ai/ha): G (0-29); Visual Growth Reduction (%) 14 Days After Application, SETFA ([2]; 140 g ai/ha): G (0-29); Visual Growth Reduction (%) 14 Days After Application, SORVU ([2]; 70 g ai/ha): G (0-29); Visual Growth Reduction (%) 14 Days After Application, SORVU ([2]; 140 g ai/ha): G (0-29); Visual Growth Reduction (%) 14 Days After Application, TRZSS ([2]; 70 g ai/ha): G (0-29); Visual Growth Reduction (%) 14 Days After Application, TRZSS ([2]; 140 g ai/ha): G (0-29); Visual Growth Reduction (%) 14 Days After Application, ZEAMX ([2]; 70 g ai/ha): G (0-29); Visual Growth Reduction (%) 14 Days After Application, ZEAMX ([2]; 140 g ai/ha): G (0-29) |
| Nc1c(F)c(-c2ccc(Cl)c(F)c2Cl)nc(C(=O)O)c1Cl [Compound 16, 4-Amino-3-chloro-6-(2,4-dichloro-3-fluorophenyl)-5-fluoropicolinic acid] | 85 to 94 | 95 to 100 | 95 to 100 | 95 to 100 | 95 to 100 | 95 to 100 | 95 to 100 | 95 to 100 | 85 to 94 | 95 to 100 | 95 to 100 | 95 to 100 | 95 to 100 | 95 to 100 | A (95-100) | B (85-94) | C (75-84) | B (85-94) | B (85-94) | A (95-100) | Visual Growth Reduction (%) 14 Days After Application, ORYSS ([2]; 70 g ai/ha): F (30-44); Visual Growth Reduction (%) 14 Days After Application, ORYSS ([2]; 140 g ai/ha): E (45-59); Visual Growth Reduction (%) 14 Days After Application, SETFA ([2]; 70 g ai/ha): A (95-100); Visual Growth Reduction (%) 14 Days After Application, SETFA ([2]; 140 g ai/ha): A (95-100); Visual Growth Reduction (%) 14 Days After Application, SORVU ([2]; 70 g ai/ha): C (75-84); Visual Growth Reduction (%) 14 Days After Application, SORVU ([2]; 140 g ai/ha): B (85-94); Visual Growth Reduction (%) 14 Days After Application, TRZSS ([2]; 70 g ai/ha): B (85-94); Visual Growth Reduction (%) 14 Days After Application, TRZSS ([2]; 140 g ai/ha): B (85-94); Visual Growth Reduction (%) 14 Days After Application, ZEAMX ([2]; 70 g ai/ha): B (85-94); Visual Growth Reduction (%) 14 Days After Application, ZEAMX ([2]; 140 g ai/ha): B (85-94) |
| COC(=O)c1nc(-c2ccc(Cl)c(F)c2Cl)c(F)c(N)c1Cl [Compound 19, Methyl 4-amino-3-chloro-6-(2,4-dichloro-3-fluorophenyl)-5-fluoropicolinate] | 95 to 100 | 95 to 100 | 95 to 100 | 95 to 100 | 95 to 100 | 95 to 100 | 85 to 94 | 95 to 100 | 85 to 94 | 95 to 100 | 95 to 100 | 95 to 100 | 85 to 94 | 95 to 100 | A (95-100) | A (95-100) | E (45-59) | C (75-84) | C (75-84) | A (95-100) | Visual Growth Reduction (%) 14 Days After Application, ORYSS ([2]; 70 g ai/ha): F (30-44); Visual Growth Reduction (%) 14 Days After Application, ORYSS ([2]; 140 g ai/ha): E (45-59); Visual Growth Reduction (%) 14 Days After Application, SETFA ([2]; 70 g ai/ha): C (75-84); Visual Growth Reduction (%) 14 Days After Application, SETFA ([2]; 140 g ai/ha): B (85-94); Visual Growth Reduction (%) 14 Days After Application, SORVU ([2]; 70 g ai/ha): B (85-94); Visual Growth Reduction (%) 14 Days After Application, SORVU ([2]; 140 g ai/ha): B (85-94); Visual Growth Reduction (%) 14 Days After Application, TRZSS ([2]; 70 g ai/ha): C (75-84); Visual Growth Reduction (%) 14 Days After Application, TRZSS ([2]; 140 g ai/ha): C (75-84); Visual Growth Reduction (%) 14 Days After Application, ZEAMX ([2]; 70 g ai/ha): B (85-94); Visual Growth Reduction (%) 14 Days After Application, ZEAMX ([2]; 140 g ai/ha): A (95-100) |

Reference: US10765114B2, “4-amino-6-(pyridyl and 2-substitutedphenyl)-picolinates and 6-amino-2-(pyridyl and 2-substitutedphenyl)-pyrimidine-4-carboxylates and their use as herbicides” (Dow AgroSciences LLC, priority 2013, dated 2020)
